From US20100048398A1, “HERBICIDAL COMBINATION” (SYNGENTA CROP PROTECTION, INC., priority 2006, published 2010)

Assays:
Assay in all cases: Glasshouse peri-emergence herbicide test, damage to plant
Assay type in all cases: in vivo
Conditions in all cases: sprayed six days after sowing (peri-emergence), evaluated after 14 days; rate gai/ha: Prosulfocarb 2400, Flumioxazin 20, combination 2400 + 20
[1] = test system: AVEFA = Avena fatua
Experimental: (§1) Seeds of a variety of test species were sown in standard soil. After cultivation for six days (peri-emergence) under controlled conditions in a glasshouse (at 24/16° C., day/night; 14 hours light; 65% humidity), the plants were sprayed with an aqueous spray solution comprising the technical active ingredient(s). The test plants were then grown in a glasshouse under controlled conditions in a glasshouse (at 24/16° C., day/night; 14 hours light; 65% humidity) and watered twice daily. After 14 days, the test was evaluated (100=total damage to plant; 0=no damage to plant).

[2] = test system: VERPE = Veronica persicae
Experimental: as §1

[3] = test system: ALOMY = Alopecurus myosuroides
Experimental: as §1

[4] = test system: LOLMU = Lolium multiflorum
Experimental: as §1

[5] = test system: GALAP = Galium aparine
Experimental: as §1

[6] = test system: POAAN = Poa annua
Experimental: as §1

[7] = test system: APESV = Apera spica-venti
Experimental: as §1

[8] = test system: HORVW = Hordeum vulgare
Experimental: as §1

[9] = test system: TRZAW = Tritcum aestivum
Experimental: as §1

Row | SMILES | damage to plant (100=total damage; 0=no damage), AVEFA [1] | damage to plant (100=total damage; 0=no damage), VERPE [2] | damage to plant (100=total damage; 0=no damage), ALOMY [3] | damage to plant (100=total damage; 0=no damage), LOLMU [4] | damage to plant (100=total damage; 0=no damage), GALAP [5] | damage to plant (100=total damage; 0=no damage), POAAN [6] | damage to plant (100=total damage; 0=no damage), APESV [7] | damage to plant (100=total damage; 0=no damage), HORVW [8] | damage to plant (100=total damage; 0=no damage), TRZAW [9]
1 | CCCN(CCC)C(=O)SCc1ccccc1 [Prosulfocarb, prosulfocarb] | 55 | 88 | 78 | 30 | 78 | 0 | 95 | – | –
2 | C#CCN1C(=O)COc2cc(F)c(N3C(=O)C4=C(CCCC4)C3=O)cc21 [Flumioxazin, flumioxazin] | 8 | 99 | 33 | 0 | 73 | 5 | 60 | 0 | 8
